From patent US9265253B2, “Use of macrocyclic picolinamides as fungicides” (DOW AGROSCIENCES LLC, priority 2013, dated 2016)

Each compound was assayed on Alternaria solani (assay: Tomato Early Blight (ALTESO) disease control). Conditions: Alternaria solani, topical, 24 h, 1 Day Protectant, read-out: Disease Control ALTESO 1 DP.
Format: in vivo
Description: Technical grades of materials were dissolved in acetone, which were then mixed with nine volumes of water containing 110 ppm Triton X-100. The fungicide solutions were applied onto wheat seedlings using an automated booth sprayer to run-off. All sprayed plants were allowed to air dry prior to further handling. All fungicides were evaluated using the aforementioned method for their activity vs. all target diseases. Wheat leaf blotch and brown rust activity were also evaluated using track spray applications, in which case the fungicides were formulated as EC formulations, containing 0.1% Trycol 5941 in the spray solutions. Wheat plants (variety Yuma) were grown from seed in a greenhouse in 50% mineral soil/50% soil-less Metro mix until the first leaf was fully emerged, with 7-10 seedlings per pot. These plants were inoculated with an aqueous spore suspension of Septoria tritici either prior to or after fungicide treatments. After inoculation the plants were kept in 100% relative humidity (one day in a dark dew chamber followed by two to three days in a lighted dew chamber at 20° C.) to permit spores to germinate and infect the leaf. The plants were then transferred to a greenhouse set at 20° C. for disease to develop. When disease symptoms were fully expressed on the 1st leaves of untreated plants, infection levels were assessed on a scale of 0 to 100 percent disease severity. Percent disease control was calculated using the ratio of disease severity on treated plants relative to untreated plants. Tomato plants (variety Outdoor girl) were propagated in soil-less Metro mix, with each pot having one plant, and used when 12 to 14 days old. Test plants were inoculated with an aqueous spore suspension of Alternaria solani 24 hr after fungicide treatments. After inoculation the plants were kept in 100% relative humidity (one day in a dark dew chamber followed by two to three days in a lighted dew chamber at 20° C.) to permit spores to germinate and infect the leaf. The plants were then transferred to a growth room at 22° C. for disease to develop. Fungicide formulation, application and disease assessment on the sprayed leaves followed the procedures as described in the Example A.

| Structure (SMILES) | pest or weed control at 100 ppm |
| --- | --- |
| COc1ccnc(C(=O)N[C@H]2CCC[C@H](Cc3ccccc3)[C@@H](OCC(C)C)[C@H](C)OC2=O)c1OCOC(C)=O [Compound F106] | 80 to 100% |
| C=C[C@H]1CCC[C@H](NC(=O)c2nccc(OC)c2OC(C)=O)C(=O)O[C@@H](C)[C@@H]1Oc1ccccc1 [Compound F86] | 0 to 80% |
| COc1ccnc(C(=O)N[C@H]2CCC[C@H](Cc3ccc(F)cc3)[C@@H](OCC3CC3)[C@H](C)OC2=O)c1OC(C)=O [Compound F67] | 80 to 100% |

The compounds below were run on Venturia inaequalis (assay: Apple Scab (VENTIN) disease control). Conditions: Venturia inaequalis, topical, 24 h, 1 Day Protectant, read-out: Disease Control VENTIN 1 DP.
Format: in vivo
Description: Technical grades of materials were dissolved in acetone, which were then mixed with nine volumes of water containing 110 ppm Triton X-100. The fungicide solutions were applied onto wheat seedlings using an automated booth sprayer to run-off. All sprayed plants were allowed to air dry prior to further handling. All fungicides were evaluated using the aforementioned method for their activity vs. all target diseases. Wheat leaf blotch and brown rust activity were also evaluated using track spray applications, in which case the fungicides were formulated as EC formulations, containing 0.1% Trycol 5941 in the spray solutions. Wheat plants (variety Yuma) were grown from seed in a greenhouse in 50% mineral soil/50% soil-less Metro mix until the first leaf was fully emerged, with 7-10 seedlings per pot. These plants were inoculated with an aqueous spore suspension of Septoria tritici either prior to or after fungicide treatments. After inoculation the plants were kept in 100% relative humidity (one day in a dark dew chamber followed by two to three days in a lighted dew chamber at 20° C.) to permit spores to germinate and infect the leaf. The plants were then transferred to a greenhouse set at 20° C. for disease to develop. When disease symptoms were fully expressed on the 1st leaves of untreated plants, infection levels were assessed on a scale of 0 to 100 percent disease severity. Percent disease control was calculated using the ratio of disease severity on treated plants relative to untreated plants. Apple seedlings (variety McIntosh) were grown in soil-less Metro mix, with one plant per pot. Seedlings with two expanding young leaves at the top (older leaves at bottom of the plants were trimmed) were used in the test. Plants were inoculated with a spore suspension of Venturia inaequalis 24 hr after fungicide treatment and kept in a 22° C. dew chamber with 100% RH for 48 hr, and then moved to a greenhouse set at 20° C. for disease to develop. Fungicide formulation, application and disease assessment on the sprayed leaves followed the procedures as described in the Example A.

| Structure (SMILES) | pest or weed control at 100 ppm |
| --- | --- |
| COc1ccnc(C(=O)N[C@H]2CCC[C@H](Cc3ccccc3)[C@@H](OCC(C)C)[C@H](C)OC2=O)c1OCOC(C)=O [Compound F106] | 0 to 80% |
| C=C[C@H]1CCC[C@H](NC(=O)c2nccc(OC)c2OC(C)=O)C(=O)O[C@@H](C)[C@@H]1Oc1ccccc1 [Compound F86] | 0 to 80% |
| COc1ccnc(C(=O)N[C@H]2CCC[C@H](Cc3ccc(F)cc3)[C@@H](OCC3CC3)[C@H](C)OC2=O)c1OC(C)=O [Compound F67] | 0 to 80% |

These compounds were tested on Puccinia triticina; Synonym: Puccinia recondite f. Sp. Tritici (assay: Wheat Brown Rust (PUCCRT) disease control). Conditions: Puccinia triticina, topical, 24 h, 1 Day Protectant, rate 100 ppm; read-out: PUCCRT 1 DP disease control.
Format: in vivo
Outline: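 Brown rust on first-leaf Yuma wheat: spore inoculation before or after spray application (acetone/Triton X-100 solution, or EC with Trycol in track spray), overnight 100% RH at 22 °C, disease developed at 24 °C. Severity scored 0–100% and converted to percent control against untreated.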

| Structure (SMILES) | pest or weed control at 100 ppm |
| --- | --- |
| COc1ccnc(C(=O)N[C@H]2CCC[C@H](Cc3ccccc3)[C@@H](OCC(C)C)[C@H](C)OC2=O)c1OCOC(C)=O [Compound F106] | 80 to 100% |
| COc1ccnc(C(=O)N[C@H]2CCC[C@H](Cc3ccc(F)cc3)[C@@H](OCC3CC3)[C@H](C)OC2=O)c1OC(C)=O [Compound F67] | 80 to 100% |

Same assay, conditions: Puccinia triticina, topical, 24 h, 1 Day Protectant, rate 121.5 g/H; read-out: PUCCRT 1 DP disease control

| Structure (SMILES) | pest or weed control at 121.5 g/ha |
| --- | --- |
| COc1ccnc(C(=O)N[C@H]2CCC[C@H](Cc3ccccc3)[C@@H](OCC(C)C)[C@H](C)OC2=O)c1OCOC(C)=O [Compound F106] | 80 to 100% |
| C=C[C@H]1CCC[C@H](NC(=O)c2nccc(OC)c2OC(C)=O)C(=O)O[C@@H](C)[C@@H]1Oc1ccccc1 [Compound F86] | 80 to 100% |
| COc1ccnc(C(=O)N[C@H]2CCC[C@H](Cc3ccc(F)cc3)[C@@H](OCC3CC3)[C@H](C)OC2=O)c1OC(C)=O [Compound F67] | 80 to 100% |

Same assay, conditions: Puccinia triticina, topical, 72 h, 3 Day Curative, rate 100 ppm; read-out: PUCCRT 3 DC disease control

| Structure (SMILES) | pest or weed control at 100 ppm |
| --- | --- |
| COc1ccnc(C(=O)N[C@H]2CCC[C@H](Cc3ccccc3)[C@@H](OCC(C)C)[C@H](C)OC2=O)c1OCOC(C)=O [Compound F106] | 80 to 100% |
| COc1ccnc(C(=O)N[C@H]2CCC[C@H](Cc3ccc(F)cc3)[C@@H](OCC3CC3)[C@H](C)OC2=O)c1OC(C)=O [Compound F67] | 80 to 100% |

Same assay, conditions: Puccinia triticina, topical, 72 h, 3 Day Curative, rate 121.5 g/H; read-out: PUCCRT 3 DC disease control

| Structure (SMILES) | pest or weed control at 121.5 g/ha |
| --- | --- |
| COc1ccnc(C(=O)N[C@H]2CCC[C@H](Cc3ccccc3)[C@@H](OCC(C)C)[C@H](C)OC2=O)c1OCOC(C)=O [Compound F106] | 80 to 100% |
| C=C[C@H]1CCC[C@H](NC(=O)c2nccc(OC)c2OC(C)=O)C(=O)O[C@@H](C)[C@@H]1Oc1ccccc1 [Compound F86] | 80 to 100% |
| COc1ccnc(C(=O)N[C@H]2CCC[C@H](Cc3ccc(F)cc3)[C@@H](OCC3CC3)[C@H](C)OC2=O)c1OC(C)=O [Compound F67] | 80 to 100% |

What follows are compounds tested on Mycosphaerella graminicola; Anamorph: Septoria tritici (assay: Leaf Blotch of Wheat (SEPTTR) disease control). Conditions: Zymoseptoria tritici, 24 h, 1 Day Protectant, rate 100 ppm; read-out: SEPTTR 1 DP disease control.
Format: in vivo
Outline: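 Protective or curative format: Septoria tritici inoculation either preceded or followed fungicide application to first-leaf Yuma wheat. Severity scored 0–100%; control expressed versus untreated.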

| Structure (SMILES) | pest or weed control at 100 ppm |
| --- | --- |
| COc1ccnc(C(=O)N[C@H]2CCC[C@H](Cc3ccccc3)[C@@H](OCC(C)C)[C@H](C)OC2=O)c1OCOC(C)=O [Compound F106] | 80 to 100% |
| COc1ccnc(C(=O)N[C@H]2CCC[C@H](Cc3ccc(F)cc3)[C@@H](OCC3CC3)[C@H](C)OC2=O)c1OC(C)=O [Compound F67] | 80 to 100% |

Same assay, conditions: Zymoseptoria tritici, 24 h, 1 Day Protectant, rate 121.5 g/H; read-out: SEPTTR 1 DP disease control

| Structure (SMILES) | pest or weed control at 121.5 g/ha |
| --- | --- |
| COc1ccnc(C(=O)N[C@H]2CCC[C@H](Cc3ccccc3)[C@@H](OCC(C)C)[C@H](C)OC2=O)c1OCOC(C)=O [Compound F106] | 80 to 100% |
| C=C[C@H]1CCC[C@H](NC(=O)c2nccc(OC)c2OC(C)=O)C(=O)O[C@@H](C)[C@@H]1Oc1ccccc1 [Compound F86] | 80 to 100% |
| COc1ccnc(C(=O)N[C@H]2CCC[C@H](Cc3ccc(F)cc3)[C@@H](OCC3CC3)[C@H](C)OC2=O)c1OC(C)=O [Compound F67] | 80 to 100% |

Same assay, conditions: Zymoseptoria tritici, 72 h, 3 Day Curative, rate 100 ppm; read-out: SEPTTR 3 DC disease control

| Structure (SMILES) | pest or weed control at 100 ppm |
| --- | --- |
| COc1ccnc(C(=O)N[C@H]2CCC[C@H](Cc3ccccc3)[C@@H](OCC(C)C)[C@H](C)OC2=O)c1OCOC(C)=O [Compound F106] | 80 to 100% |
| COc1ccnc(C(=O)N[C@H]2CCC[C@H](Cc3ccc(F)cc3)[C@@H](OCC3CC3)[C@H](C)OC2=O)c1OC(C)=O [Compound F67] | 80 to 100% |

Same assay, conditions: Zymoseptoria tritici, 72 h, 3 Day Curative, rate 121.5 g/H; read-out: SEPTTR 3 DC disease control

| Structure (SMILES) | pest or weed control at 121.5 g/ha |
| --- | --- |
| COc1ccnc(C(=O)N[C@H]2CCC[C@H](Cc3ccccc3)[C@@H](OCC(C)C)[C@H](C)OC2=O)c1OCOC(C)=O [Compound F106] | 80 to 100% |
| C=C[C@H]1CCC[C@H](NC(=O)c2nccc(OC)c2OC(C)=O)C(=O)O[C@@H](C)[C@@H]1Oc1ccccc1 [Compound F86] | 80 to 100% |
| COc1ccnc(C(=O)N[C@H]2CCC[C@H](Cc3ccc(F)cc3)[C@@H](OCC3CC3)[C@H](C)OC2=O)c1OC(C)=O [Compound F67] | 80 to 100% |
